# Measured values reported in article PMC8991007, “Benzylic Dehydroxylation of Echinocandin Antifungal Drugs Restores Efficacy against Resistance Conferred by Mutated Glucan Synthase” (Journal of the American Chemical Society, 2022).
# Like-named read-outs stand apart in the source and are kept apart here. *1 amine or outer side, *2 acyl side, *3 side chain or, on linkers, in order; H or OH if unused. Where a SMILES comes first, the peptide text is derived from it. Bridges are numbered along the chain shown (N, C = ends). [ ]: non-standard residue; d: D form. The star is where a group is joined. Orn(4R-OH,5R-OCH2CH2NMe3+) = C[N+](C)(C)CCO[C@@H](N[*:3])[C@H](O)C[C@H](N[*:1])C(=O)[*:2]; pTerphenylCO(4''-OnC5H11) = CCCCCOc1ccc(-c2ccc(-c3ccc(C(=O)*)cc3)cc2)cc1; hTyr(3S-OH,4S-OH) = N[C@H](C(=O)O)[C@H](O)[C@@H](O)c1ccc(O)cc1; Pro(3S-OH,4S-Me) = C[C@H]1CN[C@H](C(=O)O)[C@H]1O; hTyr(3R-OH) = N[C@H](C(=O)O)[C@H](O)Cc1ccc(O)cc1; Hyp = O=C(O)[C@@H]1C[C@@H](O)CN1
# How the values were obtained:
# [1] = tested on: C. glabrata; experiment: Minimum inhibitory concentration broth double-dilution assay; type: cell-based, Candida glabrata; details: 24 h, 30 °C
# Method: (§1) The antifungal activities of compounds 1 and 2 were evaluated against a panel of 50 strains of C. albicans and C. glabrata (Table S4), including echinocandin-resistant strains that were constructed by introducing mutations within and near the defined hotspots in the FKS1 and/or FKS2 genes.[27] To evaluate antifungal activity, we determined MIC values. The MIC was defined as the lowest drug concentration that led to turbidity (measured at 600 nm) of less than or equal to 35% of that of the untreated culture. As controls, we tested CSF, MCF, ANF, and RZF.
# (§2) All of the tested compounds were dissolved in anhydrous DMSO to a concentration of 5 mg/mL. Candida strains were streaked from a glycerol stock onto YPAD agar plates and grown for 24 h at 30 °C. Colonies were suspended in 1 mL of PBS and diluted to an O.D. of 0.01 at 600 nm with YPAD broth and added into flat-bottom 96-well microplates (Corning) containing a gradient of twofold dilutions per tested compound with concentrations ranging from 64 to 0.0009 μg/mL. Control wells with no drug and blank wells without yeast cells containing YPAD only were also prepared. […] Each concentration was tested in triplicate, and results were confirmed by at least two independent sets of experiments.
# [2] = tested on: UACC-62; experiment: cells; type: cell-based; details: Homo sapiens; UACC-62 expressing GFP, 24 h, mean ± SD; read-out: IC50 (cell viability)
# Method: (§3) In this analysis, we used HCT-116, a human colorectal carcinoma cell line; UACC-62, a human melanoma cell line; Hs 578T, a human mammary gland carcinoma cell line, and SF-295, a human glioblastoma cell line. […] The highest concentration of the echinocandins used for the cell viability tests was determined based on the reported maximal plasma concentrations (Cmax) of ANF and RZF measured in humans. A Cmax of approximately 7 μM was measured during a pharmacokinetic study of ANF in patients with candidemia or invasive candidiasis who were treated with a 200 mg loading dose on day 1, followed by a daily 100 mg maintenance dose.[64]
# (§4) Human cell lines HCT-116, UACC-62, Hs 578T, and SF-295 were obtained from the Life Sciences Core Facilities of the Nancy & Stephen Grand Israel National Center for Personalized Medicine. Cell lines were grown in an RPMI medium (Gibco, cat. no. 21875-034) supplemented with 10% fetal calf serum (Biological Industries, cat. no. 04-007-1A), Pen/Strep (Biological Industries, cat. no. 03-031-1B), and glutamine (Biological Industries, cat. no. 03-020-1B). GFP was introduced into cells using TALENS according to a previously reported protocol.[73] GFP cells were selected by FACS and propagated.
# (§5) Assay-ready plates were designed using in-house software (CHEMPION, INCPM software development team) and prepared in 384-well Greiner plates (cat. no. 781091) using an Echo 555 Acoustic Liquid Handler (Labcyte). The final DMSO concentration in all samples was 0.4%. Prior to the experiment, cells were trypsinized and counted using a Countess cytometer. Cells were then diluted to 40,000 cells/mL in a fresh medium. Cells (50 μL/well; 2000 cells/well) were then dispensed with a Thermo Combi dispenser into plates containing predispensed compounds. After 30 min at room temperature to ensure uniform adherence of cells, the plates were moved to an automated incubator (Liconic STX44) and incubated at 37 °C. An automated confocal microscope with a 4× S Fluor lens (Molecular Devices ImageExpress) was used to acquire images of GFP-expressing cells after 24 h of incubation. Images were then analyzed using MetaExpress with a custom protocol (Custom Module Editor), and data were annotated and normalized using Genedata Screener software. Final normalized data were then loaded into CDD Vault software for comparative data visualization.
# [3] = tested on: SF-295; experiment: cells; type: cell-based; details: Homo sapiens; SF-295 expressing GFP, 24 h, mean ± SD; read-out: IC50 (cell viability)
# Method: as §3, §4, §5
# [4] = tested on: Hs 578T; experiment: Phenotypic viability assay of GFP reporter cell line; type: cell-based; details: Homo sapiens; Hs 578T expressing GFP, 24 h, mean ± SD
# Method: as §3, §4, §5
# [5] = tested on: THLE-2 cells; experiment: cells; type: cell-based; details: Homo sapiens
# Method: The effects of ANF and RZF and their dehydroxylated derivatives 1 and 2 on the viability of human cells were further evaluated in an assay with THLE-2 cells, which are a transformed human liver epithelial cell line. These cells express phenotypic characteristics of normal adult liver epithelial cells.
# THLE-2 cells (ATCC, cat. no. CRL2706) were cultured in 384-well plates coated with BEBM (Lonza, cat. no CC3170) containing 100 μg/mL BSA, 1:100 fibronectin (Sigma, cat. no. F0895), and a 1:100 PureCol EZ Gel Solution (Sigma, cat. no. 5074) for 50–60 min at 37 °C. THLE-2 cells were plated at a density of 2.5 × 10^3 cells/well in the coated plates in a total volume of 20 μL. Culture media were BEGM supplemented with 5 ng/mL hEGF (Sigma, cat. no. E5036), 70 ng/mL phosphoethanolamine (Sigma, cat. no. P0503), and 10% fetal bovine serum. Plates were incubated overnight at 37 °C, 95% humidity, and 5% CO2. The culture medium was replaced with 50 μL of a fresh medium, and compounds were applied to the cells in triplicate. Plates were cultured for another 72 h, and ATP was quantified using a CellTiter-Glo kit (Promega #G7573) according to the manufacturer’s protocol. The luminescence signal was detected using a PHERAstar FS (BMG Labtech).
# [6] = tested on: C. albicans; experiment: Minimum inhibitory concentration broth double-dilution assay; type: cell-based, Candida albicans; details: for MIC: 24 h, 30 °C
# Method: as §1, §2
# [7] = THLE-2, 72 h of incubation, ranges for ANF and 1 and for RZF and 2 stated jointly, read-out: IC50 value (THLE-2 viability)
# [8] = THLE-2, 72 h, ATP luminescence, read-out: IC50 (cell viability)
# [9] = #2 C. albicans DPL1015 (DP-A15)
# [10] = #3 C. albicans DPL1016 (DP-A15-10)
smiles,measurement,setting,value
"CCCCCOc1ccc(-c2ccc(-c3ccc(C(=O)N[C@H]4C[C@@H](O)[C@@H](OCC[N+](C)(C)C)NC(=O)[C@@H]5[C@@H](O)[C@@H](C)CN5C(=O)[C@H]([C@@H](C)O)NC(=O)[C@H]([C@H](O)Cc5ccc(O)cc5)NC(=O)[C@@H]5C[C@@H](O)CN5C(=O)[C@H]([C@@H](C)O)NC4=O)cc3)cc2)cc1 [Compound 2, dehydroxy-RZF] ({pTerphenylCO(4''-OnC5H11)}-[Orn(4R-OH,5R-OCH2CH2NMe3+)]T[Hyp][hTyr(3R-OH)]T[Pro(3S-OH,4S-Me)]; lactam 1-C)",MIC,[1]; #9 C. glabrata EF1620,0.015 mg/L
same,MIC,[1]; #10 C. glabrata TGL00277,16 mg/L
same,MIC,[1]; #11 C. glabrata TGL00275,8 mg/L
same,MIC,[1]; #12 C. glabrata CST78,0.004 mg/L
same,MIC,[1]; #13 C. glabrata TGL00265,2 mg/L
same,MIC,[1]; #14 C. glabrata TGL00264,32 mg/L
same,MIC,[1]; #15 C. glabrata TGL00263,2 mg/L
same,MIC,[1]; #16 C. glabrata TGL00065,8 mg/L
same,MIC,[1]; #17 C. glabrata CST34,0.004 mg/L
same,MIC,[1]; #18 C. glabrata TGL00258,8 mg/L
same,MIC,[1]; #19 C. glabrata TGL00256,0.25 mg/L
same,MIC,[1]; #20 C. glabrata TGL00107,16 mg/L
same,MIC,[1]; #21 C. glabrata TGL00056,> 64 mg/L
same,MIC,[1]; #22 C. glabrata M12,0.002 mg/L
same,MIC,[1]; #23 C. glabrata TGL00270,4 mg/L
same,MIC,[1]; #24 C. glabrata TGL00269,0.063 mg/L
same,MIC,[1]; #25 C. glabrata TGL00268,> 64 mg/L
same,MIC,[1]; #26 C. glabrata TGL00268,> 64 mg/L
same,MIC,[1]; #27 C. glabrata EB0911,0.004 mg/L
same,MIC,[1]; #28 C. glabrata TGL00261,1 mg/L
same,MIC,[1]; #29 C. glabrata TGL00109,64 mg/L
same,MIC,[1]; #30 C. glabrata TGL00259,8 mg/L
same,MIC,[1]; #31 C. glabrata EF1237,0.002 mg/L
same,MIC,[1]; #36 C. glabrata F15,0.004 mg/L
same,MIC,[1]; #38 C. glabrata CBS138 (ATCC 2001),0.008 mg/L
same,MIC,[1]; #41 C. glabrata P35_2,0.004 mg/L
same,MIC,[1]; #43 C. glabrata SLL2glab,0.008 mg/L
same,MIC,[1]; #46 C. glabrata BG2,0.008 mg/L
same,IC50,[2],29.2 ± 5.2 µM
same,IC50,[3],32.4 ± 6.7 µM
same,IC50,[4],> 40 µM
same,IC50,[5]; [7],36 to 77 µM
same,IC50,[5]; [8],55.9 ± 3 µM
same,MIC,[6]; #1 C. albicans Sc5314,0.015 mg/L
same,MIC,[6]; [9],0.062 mg/L
same,MIC,[6]; [10],2 mg/L
same,MIC,[6]; #4 C. albicans T-2068 (DP-C42),0.5 mg/L
same,MIC,[6]; #5 C. albicans T-2069 (DP-85),0.5 mg/L
same,MIC,[6]; #6 C. albicans (DP-89),1 mg/L
same,MIC,[6]; #7 C. albicans T-2076 (DP-194),1 mg/L
same,MIC,[6]; #8 C. albicans T-2077 (DP-205),0.25 mg/L
same,MIC differences between RZF and dehydroxy derivative 2 (ratio MIC (RZF)/MIC (2)),"[6]; C. albicans strains 5 and 6, Fks1 serine 645 to phenylalanine or tyrosine",at least 8 fold
"CCCCCOc1ccc(-c2ccc(-c3ccc(C(=O)N[C@H]4C[C@@H](O)[C@@H](OCC[N+](C)(C)C)NC(=O)[C@@H]5[C@@H](O)[C@@H](C)CN5C(=O)[C@H]([C@@H](C)O)NC(=O)[C@H]([C@H](O)[C@@H](O)c5ccc(O)cc5)NC(=O)[C@@H]5C[C@@H](O)CN5C(=O)[C@H]([C@@H](C)O)NC4=O)cc3)cc2)cc1 [RZF, rezafungin] ({pTerphenylCO(4''-OnC5H11)}-[Orn(4R-OH,5R-OCH2CH2NMe3+)]T[Hyp][hTyr(3S-OH,4S-OH)]T[Pro(3S-OH,4S-Me)]; lactam 1-C)",MIC,[1]; #9 C. glabrata EF1620,0.015 mg/L
same,MIC,[1]; #10 C. glabrata TGL00277,64 mg/L
same,MIC,[1]; #11 C. glabrata TGL00275,16 mg/L
same,MIC,[1]; #12 C. glabrata CST78,0.008 mg/L
same,MIC,[1]; #13 C. glabrata TGL00265,16 mg/L
same,MIC,[1]; #14 C. glabrata TGL00264,32 mg/L
same,MIC,[1]; #15 C. glabrata TGL00263,32 mg/L
same,MIC,[1]; #16 C. glabrata TGL00065,> 64 mg/L
same,MIC,[1]; #17 C. glabrata CST34,0.008 mg/L
same,MIC,[1]; #18 C. glabrata TGL00258,> 64 mg/L
same,MIC,[1]; #19 C. glabrata TGL00256,4 mg/L
same,MIC,[1]; #20 C. glabrata TGL00107,> 64 mg/L
same,MIC,[1]; #21 C. glabrata TGL00056,> 64 mg/L
same,MIC,[1]; #22 C. glabrata M12,0.008 mg/L
same,MIC,[1]; #23 C. glabrata TGL00270,> 64 mg/L
same,MIC,[1]; #24 C. glabrata TGL00269,1 mg/L
same,MIC,[1]; #25 C. glabrata TGL00268,> 64 mg/L
same,MIC,[1]; #26 C. glabrata TGL00268,> 64 mg/L
same,MIC,[1]; #27 C. glabrata EB0911,0.015 mg/L
same,MIC,[1]; #28 C. glabrata TGL00261,16 mg/L
same,MIC,[1]; #29 C. glabrata TGL00109,64 mg/L
same,MIC,[1]; #30 C. glabrata TGL00259,> 64 mg/L
same,IC50,[2],> 40 µM
same,IC50,[3],> 40 µM
same,IC50,[4],> 40 µM
same,IC50,[5]; [7],36 to 77 µM
same,IC50,[5]; [8],76.6 ± 4.8 µM
same,MIC,[6]; #1 C. albicans Sc5314,0.015 mg/L
same,MIC,[6]; [9],0.25 mg/L
same,MIC,[6]; [10],4 mg/L
same,MIC,[6]; #4 C. albicans T-2068 (DP-C42),2 mg/L
same,MIC,[6]; #5 C. albicans T-2069 (DP-85),8 mg/L
same,MIC,[6]; #6 C. albicans (DP-89),8 mg/L
same,MIC,[6]; #7 C. albicans T-2076 (DP-194),1 mg/L
same,MIC,[6]; #8 C. albicans T-2077 (DP-205),1 mg/L
